This passage reports mortality results from patent US4309439A, “Substituted-acetic acid ester” (Sumitomo Chemical Company, Limited, priority 1975, dated 1982).

In this data set the test system is green rice leafhoppers (Nephotettix cincticeps). Kind of data set: mortality of green rice leafhoppers on sprayed rice plants (Experimental Example 1). It is filed as in vivo. To be noted: 30% concentrate / wettable powder diluted 300 times; 10 ml/pot; after one day; 1440 min. The method, then:
An emulsifiable concentrate is prepared by blending 30% of each of the present compounds (1) to (35), 50% of xylene and 20% of Sorpol SM-200 (a registered trade mark of Toho Kagaku Co.).
The emulsifiable concentrates thus formulated were diluted 300 times with water. […] Each test solution thus prepared was individually sprayed on the rice plants in a pot which had elasped 25 days after sowing, in a proportion of 10 ml/pot. Thereafter, each pot was covered with a cylindrical wire net and 15 green rice leafhoppers (Nephotettix cincticeps) were liberated in the pot.

`CNC(=O)Oc1cccc2ccccc12` [Carbaryl, 1-naphthyl-N-methylcarbamate]: the mortality entry was “more than 90%”.
